The nature of test [1]: CHO GLP-1R Clone C6 Assay 2: GLP-1R-mediated agonist activity was determined with a cell-based functional assay utilizing an HTRF (Homogeneous Time-Resolved Fluorescence) cAMP detection kit (cAMP HI Range Assay Kit; Cis Bio cat #62AM6PEJ) that measures cAMP levels in the cell. The method is a competitive immunoassay between native cAMP produced by the cells and exogenous cAMP labeled with the dye …. On the technique in general: Time-resolved FRET reads energy transfer from a long-lived donor to a nearby acceptor.
Description: The method is a competitive immunoassay between native cAMP produced by the cells and exogenous cAMP labeled with the dye d2. The tracer binding is visualized by a mAb anti-cAMP labeled with Cryptate. The specific signal (i.e. energy transfer) is inversely proportional to the concentration of cAMP in either a standard or an experimental sample.The human GLP-1R coding sequence (NCBI Reference Sequence NP_002053.3, including naturally-occurring variant Leu260Phe) was subcloned into pcDNA5-FRT-TO and a clonal CHO cell line stably expressing a low receptor density was isolated using the Flp-In™ T-Rex™ System, as described by the manufacturer (ThermoFisher). […] Following the 30 minute incubation, 10 μL of labeled d2 cAMP and 10 μL of anti-cAMP antibody (both diluted 1:20 in cell lysis buffer; as described in the manufacturer's assay protocol) were added to each well of the assay plate. […] Raw data were converted to nM cAMP by interpolation from a cAMP standard curve (as described in the manufacturer's assay protocol) and the percent effect was determined relative to a saturating concentration of the full agonist GLP-1 (1 μM) included on each plate. EC50 determinations were made from agonist dose response curves analyzed with a curve fitting program using a 4-parameter logistic dose response equation.

The nature of test [2]: CHO GLP-1R Clone H6 Assay 1: GLP-1R-mediated agonist activity was determined with a cell-based functional assay utilizing an HTRF (Homogeneous Time-Resolved Fluorescence) cAMP detection kit (cAMP HI Range Assay Kit; CisBio cat #62AM6PEJ) that measures cAMP levels in the cell. The method is a competitive immunoassay between native cAMP produced by the cells and exogenous cAMP labeled with the dye ….
Description: The method is a competitive immunoassay between native cAMP produced by the cells and exogenous cAMP labeled with the dye d2. The tracer binding is visualized by a mAb anti-cAMP labeled with Cryptate. […] A 1 mL sample of the cell suspension in growth media was counted on a Becton Dickinson ViCell to determine cell viability and cell count per mL. […] Following the 30 minute incubation, 10 μL of labeled d2 cAMP and 10 μL of anti-cAMP antibody (both diluted 1:20 in cell lysis buffer; as described in the manufacturer's assay protocol) were added to each well of the assay plate. […] Raw data were converted to nM cAMP by interpolation from a cAMP standard curve (as described in the manufacturer's assay protocol) and the percent effect was determined relative to a saturating concentration of the full agonist GLP-17-36 (1 μM) included on each plate. EC50 determinations were made from agonist dose-response curves analyzed with a curve fitting program using a 4-parameter logistic dose response equation.

We go through seven compounds from ChEMBL document CHEMBL5727810, “GLP-1 receptor agonists and uses thereof” (2020).

The EC50 is the concentration needed to bring the measured effect to its halfway point.

Molecules are shown by their SMILES.

With `COCCn1c(C2CC23CCN(c2cccc4c2OC(C)(c2ccc(Cl)cc2F)O4)CC3)nc2ccc(C(=O)O)cc21` (configuration not stated), in test [1], the EC50 was greater than 20000 nM.

For the compound `COCCn1c(CN2CCN(c3cccc4c3O[C@H](c3ccc(Cl)cc3F)O4)CC2)nc2ccc(C(=O)OC)cc21`, the EC50 in test [1] is greater than 20000 nM; in test [2] it was 880 nM.

On to `COCCn1c(CN2CCN(c3cccc4c3O[C@@H](c3ccc(Cl)cc3F)O4)CC2)nc2ccc(C(=O)OC)cc21`, for which the EC50 in test [1] amounted to 260 nM; in test [2], 6.6 nM.

`COCCn1c([C@@H]2CC23CCN(c2cccc4c2OC(C)(c2ccc(Cl)cc2F)O4)CC3)nc2ccc(C(=O)OC)cc21` (some centres not stated): the EC50 in test [1] is greater than 20000 nM; in test [2] it was greater than 18000 nM.

For the compound `C[C@]1(c2ccc(Cl)cc2F)Oc2cccc(C3CCN(Cc4nc5ccc(C(=O)O)cc5n4Cc4ncco4)CC3)c2O1`, the half-maximal effective concentration (EC50) in test [1] is 38 nM; in test [2] it was 4.5 nM.

As for `COCCn1c([C@H]2CC23CCN(c2cccc4c2OC(C)(c2ccc(Cl)cc2F)O4)CC3)nc2ccc(C(=O)OC)cc21` (some centres not stated), the 50% effective concentration (EC50) in test [1] is 120 nM; in test [2], 7.7 nM.

In test [1], `COCCn1c(CN2CCC(c3cccc4c3OC(c3ccc(Cl)cc3F)O4)CC2)nc2ccc(C(=O)O)cc21` (single isomer, unassigned) came in with an EC50 greater than 20000 nM.
